In PMC4894417, “Quantitative High-Throughput Profiling of Environmental Chemicals and Drugs that Modulate Farnesoid X Receptor” (Scientific Reports, 2014):
“Also recorded” adds a separate entry of the source. Where two headings read alike, the source gives them in different places.

Assays:
[1] = target: T1, human FXR (Homo sapiens, UniProt Q96RI1); experiment: FXR-bla reporter gene assay, agonist mode (qHTS); conditions: for FXR agonist activity: FXR-bla assay; for FXR agonist mode Efficacy: CDCA 100%; for FXR-bla, agonist EC50: Table 1, confirmed compounds, mean ± SD of 3 experiments
T1 sequence (Q96RI1 with tags, fused parts or gaps limits assumed): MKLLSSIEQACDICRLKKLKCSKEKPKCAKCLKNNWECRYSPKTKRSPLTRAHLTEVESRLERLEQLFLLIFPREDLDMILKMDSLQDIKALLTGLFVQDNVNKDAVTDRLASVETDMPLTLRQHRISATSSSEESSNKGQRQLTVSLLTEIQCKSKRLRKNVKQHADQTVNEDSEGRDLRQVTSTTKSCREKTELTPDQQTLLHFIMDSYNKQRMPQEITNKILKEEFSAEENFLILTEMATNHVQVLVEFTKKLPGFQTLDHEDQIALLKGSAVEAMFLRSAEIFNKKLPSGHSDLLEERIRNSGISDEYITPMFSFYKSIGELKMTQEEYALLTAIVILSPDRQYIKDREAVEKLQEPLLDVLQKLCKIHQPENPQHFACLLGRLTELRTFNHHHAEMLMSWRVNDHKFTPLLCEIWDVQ

[2] = target: T1, human FXR; experiment: FXR-bla reporter gene assay, antagonist mode (CDCA-induced transactivation); conditions: for FXR-bla, antagonist Efficacy: Table 1, inhibition as percent of positive control (guggulsterone), 50 μM CDCA
[3] = Cell viability assay (CellTiter Glo) in the same well as FXR-bla; conditions: human, FXR-UAS-bla HEK293T cells
[4] = tested on: FXR-UAS-bla HEK293T cells; experiment: as above; conditions: for Cell viability IC50: Table 1, mean ± SD of 3 experiments
[5] = target: vitamin D receptor (VDR) (Homo sapiens, UniProt P11473); experiment: VDR-bla reporter gene assay (agonist and antagonist modes)
vitamin D receptor (VDR), sequence (P11473 with tags, fused parts or gaps limits assumed): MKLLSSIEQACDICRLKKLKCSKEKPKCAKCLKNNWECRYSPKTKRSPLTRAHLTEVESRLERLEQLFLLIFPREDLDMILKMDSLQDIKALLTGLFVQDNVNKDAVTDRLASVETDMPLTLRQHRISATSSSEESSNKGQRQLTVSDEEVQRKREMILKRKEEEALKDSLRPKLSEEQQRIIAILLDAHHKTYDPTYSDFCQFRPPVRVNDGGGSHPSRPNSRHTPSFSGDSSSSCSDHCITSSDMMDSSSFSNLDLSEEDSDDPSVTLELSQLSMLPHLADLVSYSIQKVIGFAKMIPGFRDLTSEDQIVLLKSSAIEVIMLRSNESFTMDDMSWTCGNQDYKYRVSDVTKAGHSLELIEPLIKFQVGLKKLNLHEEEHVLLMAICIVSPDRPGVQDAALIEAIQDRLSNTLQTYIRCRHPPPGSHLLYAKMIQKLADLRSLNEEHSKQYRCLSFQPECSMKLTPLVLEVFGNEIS

[6] = target: peroxisome proliferator-activated receptor gamma (PPARγ) (Homo sapiens, UniProt P37231); experiment: PPARγ-bla reporter gene assay (agonist and antagonist modes)
peroxisome proliferator-activated receptor gamma (PPARγ), sequence (P37231 with tags, fused parts or gaps limits assumed): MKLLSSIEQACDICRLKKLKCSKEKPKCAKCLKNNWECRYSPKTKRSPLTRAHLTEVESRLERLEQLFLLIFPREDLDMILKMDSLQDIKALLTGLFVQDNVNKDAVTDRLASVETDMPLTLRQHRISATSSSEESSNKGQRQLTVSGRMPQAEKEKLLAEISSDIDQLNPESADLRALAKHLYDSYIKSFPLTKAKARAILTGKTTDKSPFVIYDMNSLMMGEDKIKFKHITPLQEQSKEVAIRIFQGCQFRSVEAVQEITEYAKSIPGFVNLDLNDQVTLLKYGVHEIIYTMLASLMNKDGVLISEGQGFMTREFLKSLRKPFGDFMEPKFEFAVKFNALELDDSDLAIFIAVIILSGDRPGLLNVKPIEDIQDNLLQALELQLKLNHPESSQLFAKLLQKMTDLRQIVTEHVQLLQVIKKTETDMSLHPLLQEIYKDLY

[7] = target: androgen receptor (AR) (Homo sapiens, UniProt P10275); experiment: AR-bla reporter gene assay (agonist and antagonist modes)
androgen receptor (AR), sequence (P10275 with tags, fused parts or gaps limits assumed): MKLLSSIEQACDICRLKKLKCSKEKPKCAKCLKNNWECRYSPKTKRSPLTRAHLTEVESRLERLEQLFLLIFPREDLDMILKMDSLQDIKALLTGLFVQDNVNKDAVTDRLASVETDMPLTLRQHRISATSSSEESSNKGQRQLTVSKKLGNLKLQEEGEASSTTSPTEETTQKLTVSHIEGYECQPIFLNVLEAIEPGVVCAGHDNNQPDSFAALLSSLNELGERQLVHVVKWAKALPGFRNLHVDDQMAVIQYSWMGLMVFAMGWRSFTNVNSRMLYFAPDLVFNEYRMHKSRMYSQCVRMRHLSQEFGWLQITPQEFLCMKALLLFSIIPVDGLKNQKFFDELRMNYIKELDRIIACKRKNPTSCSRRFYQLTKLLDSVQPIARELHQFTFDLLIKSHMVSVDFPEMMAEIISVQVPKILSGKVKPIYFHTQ

[8] = target: peroxisome proliferator-activated receptor delta (PPARδ) (Homo sapiens, UniProt Q03181); experiment: PPARδ-bla reporter gene assay (agonist and antagonist modes)
peroxisome proliferator-activated receptor delta (PPARδ), sequence (Q03181 with tags, fused parts or gaps limits assumed): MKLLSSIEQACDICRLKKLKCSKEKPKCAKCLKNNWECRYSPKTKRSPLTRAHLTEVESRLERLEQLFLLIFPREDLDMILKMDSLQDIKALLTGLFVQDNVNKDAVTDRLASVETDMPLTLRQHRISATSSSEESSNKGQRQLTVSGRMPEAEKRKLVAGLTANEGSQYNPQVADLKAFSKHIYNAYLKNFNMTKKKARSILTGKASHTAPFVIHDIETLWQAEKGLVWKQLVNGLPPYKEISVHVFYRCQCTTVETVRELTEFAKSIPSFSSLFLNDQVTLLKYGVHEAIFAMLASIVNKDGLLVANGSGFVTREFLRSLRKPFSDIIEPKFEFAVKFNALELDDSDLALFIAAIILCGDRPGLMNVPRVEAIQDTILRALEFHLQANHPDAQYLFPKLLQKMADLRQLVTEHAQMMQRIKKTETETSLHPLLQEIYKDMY

[9] = target: estrogen receptor alpha (ERα) (Homo sapiens, UniProt P03372); experiment: ERα-bla reporter gene assay (agonist and antagonist modes)
estrogen receptor alpha (ERα), sequence (P03372 with tags, fused parts or gaps limits assumed): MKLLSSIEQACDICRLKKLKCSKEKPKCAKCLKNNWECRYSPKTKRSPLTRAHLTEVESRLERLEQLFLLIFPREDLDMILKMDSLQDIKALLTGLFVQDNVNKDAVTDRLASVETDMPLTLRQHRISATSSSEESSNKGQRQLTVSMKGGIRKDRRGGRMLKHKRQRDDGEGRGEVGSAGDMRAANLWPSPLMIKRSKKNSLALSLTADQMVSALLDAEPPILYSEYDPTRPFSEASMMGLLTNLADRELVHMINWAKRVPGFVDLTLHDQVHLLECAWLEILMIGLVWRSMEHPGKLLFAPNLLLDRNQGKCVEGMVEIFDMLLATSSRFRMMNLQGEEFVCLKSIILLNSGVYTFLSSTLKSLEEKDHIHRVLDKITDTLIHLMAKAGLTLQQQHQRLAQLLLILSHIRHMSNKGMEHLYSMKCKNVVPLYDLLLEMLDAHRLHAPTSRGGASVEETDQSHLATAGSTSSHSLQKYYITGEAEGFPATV

[10] = target: T2, FXR-LBD (Homo sapiens, UniProt Q96RI1); experiment: FXR TR-FRET coactivator recruitment assay, antagonist mode (50 μM CDCA); format: biochemical
T2 construct: The glutathione S-transferase (GST)-tagged FXR-LBD protein; purchased Life Technologies
T2 sequence (Q96RI1 262-486 limits assumed): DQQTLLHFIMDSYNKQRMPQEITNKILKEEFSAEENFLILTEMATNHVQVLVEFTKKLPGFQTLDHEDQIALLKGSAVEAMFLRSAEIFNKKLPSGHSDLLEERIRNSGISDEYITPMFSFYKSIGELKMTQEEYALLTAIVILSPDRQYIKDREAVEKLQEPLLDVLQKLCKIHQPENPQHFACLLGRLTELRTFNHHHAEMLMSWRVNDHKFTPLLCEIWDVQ

[11] = target: T2, FXR-LBD; experiment: FXR TR-FRET coactivator recruitment assay, agonist mode; format: biochemical; conditions: Table 1; coactivator SRC2-2 recruitment
[12] = FXR antagonist mode IC50, Table S1, primary screening, 50 µM CDCA
[13] = Table S1, primary screening, 50 µM CDCA
[14] = Table 1, in the presence of 50 μM CDCA

Structure (SMILES): C[C@H]1O[C@@H](O[C@H]2[C@@H](O)C[C@H](O[C@H]3[C@@H](O)C[C@H](O[C@H]4CC[C@@]5(C)[C@H](CC[C@@H]6[C@@H]5C[C@@H](O)[C@]5(C)[C@@H](C7=CC(=O)OC7)CC[C@]65O)C4)O[C@@H]3C)O[C@@H]2C)C[C@H](O)[C@@H]1O [Digoxin]
- FXR agonist mode EC50 [1]: Inactive
- FXR antagonist activity [2]: inconclusive antagonists
- FXR antagonist mode Efficacy [2]: 92 ± 10%
- IC50 [2, 12]: 0.08 ± 0.02 µM
- IC50 at 16 h [3]: 0.02 ± 0.01 µM
- Cytotoxicity Efficacy ([4]; Table S1, primary screening): 35 ± 7%

Structure (SMILES): COc1cc([C@@H]2c3cc4c(cc3[C@H](O)[C@H]3COC(=O)[C@H]23)OCO4)cc(OC)c1OC [Podofilox]
- VDR activity [5]: inhibiting β-lactamase expression
- PPARγ activity [6]: inhibiting β-lactamase expression
- AR activity [7]: inhibiting β-lactamase expression

Structure (SMILES): COC(=O)C1=C(C)NC(C)=C(C(=O)OCCN2CCN(C(c3ccccc3)c3ccccc3)CC2)C1c1cccc([N+](=O)[O-])c1 (stereo not drawn) [Manidipine]
- EC50 [1]: 6.92 ± 4 µM
- FXR agonist activity [1]: weak FXR agonist activity
- FXR agonist mode Efficacy ([1]; Table S1, primary screening): 13 ± 1%
- IC50 [2]: 19.2 ± 10.4 µM
- FXR antagonist mode Efficacy [2, 13]: 57 ± 35%
- IC50 at 16 h [3]: 18.2 ± 15.1 µM
- Cytotoxicity Efficacy ([4]; Table S1, primary screening): 49 ± 17%

Structure (SMILES): COc1cccc2c1C(=O)c1c(O)c3c(c(O)c1C2=O)C[C@@](O)(C(C)=O)C[C@@H]3O[C@H]1C[C@H](N)[C@H](O)[C@H](C)O1 [Daunorubicin]
- VDR activity [5]: antagonist response
- PPARγ activity [6]: antagonist response
- PPARδ activity [8]: antagonist response

Structure (SMILES): COC(=O)Nc1nc2ccccc2[nH]1 [Carbendazole]
- VDR activity [5]: inhibiting β-lactamase expression
- PPARγ activity [6]: inhibiting β-lactamase expression
- Cytotoxicity IC50 ([4]; Table S1, primary screening): Inactive
- AR activity [7]: inhibiting β-lactamase expression

Structure (SMILES): COC1=CC(=O)C[C@@H](C)[C@]12Oc1c(Cl)c(OC)cc(OC)c1C2=O [Griseofulvin]
- FXR agonist mode EC50 ([1]; Table S1, primary screening): Inactive
- VDR activity [5]: inhibiting β-lactamase expression
- IC50 [2]: 42.3 ± 17.3 µM
- FXR antagonist activity ([2]; FXR-bla assay, CDCA-induced): antagonistic effects; also recorded: inhibiting β-lactamase expression
- FXR antagonist mode Efficacy [2, 13]: 42 ± 7%
- PPARγ activity [6]: inhibiting β-lactamase expression
- Cytotoxicity IC50 ([4]; Table S1, primary screening): Inactive
- ERα activity [9]: antagonized

Structure (SMILES): COc1cccc2c1C(=O)c1c(O)c3c(c(O)c1C2=O)C[C@@](O)(C(=O)CO)C[C@@H]3O[C@H]1C[C@H](N)[C@H](O)[C@H](C)O1 [Doxorubicin]
- VDR activity [5]: antagonist response
- PPARγ activity [6]: antagonist response
- Cell viability IC50 [4]: Inactive
- PPARδ activity [8]: antagonist response
- ERα activity [9]: mixed agonist/antagonist response

Structure (SMILES): COc1cc2c(c(OC)c1OC)-c1ccc(OC)c(=O)cc1[C@@H](NC(C)=O)CC2 [Colchicine]
- FXR-bla, agonist EC50 [1]: Inactive
- VDR activity [5]: inhibiting β-lactamase expression
- IC50 [10]: 0.03 µM
- FXR antagonist Efficacy [2]: 55 ± 11%
- FXR antagonist activity ([2]; FXR-bla assay, CDCA-induced): inhibiting β-lactamase expression
- IC50 ([2]; FXR-bla, antagonist IC50): 0.03 µM
- IC50 ([2]; IC50, FXR-bla antagonist mode, Figure 4, primary screen): 0.011 µM
- PPARγ activity [6]: inhibiting β-lactamase expression
- Cell viability IC50 [4]: Inactive
- FXR TR-FRET, agonist EC50 [11]: Inactive
- AR activity [7]: inhibiting β-lactamase expression
- ERα activity [9]: antagonized

Structure (SMILES): CCOC(=O)C1=C(C)NC(C)=C(C(=O)OC)C1c1cccc(Cl)c1Cl (stereo not drawn) [Felodipine]
- PPARδ activity [8]: activated

Structure (SMILES): COC(=O)Nc1nc2ccc(C(=O)c3ccccc3)cc2[nH]1 [Mebendazole]
- FXR-bla, agonist EC50 [1]: Inactive
- VDR activity [5]: inhibiting β-lactamase expression
- FXR TR-FRET, antagonist IC50 [10, 14]: Inactive
- IC50 [2]: 2.19 ± 1.51 µM
- FXR antagonist activity ([2]; FXR-bla assay, CDCA-induced): inhibiting β-lactamase expression
- FXR-bla, antagonist Efficacy [2]: 70 ± 9%
- FXR antagonist Efficacy ([2]; Table S3, 50 µM CDCA): 66 ± 12%
- PPARγ activity [6]: inhibiting β-lactamase expression
- Cell viability IC50 [4]: Inactive
- FXR TR-FRET, agonist EC50 [11]: Inactive
- AR activity [7]: inhibiting β-lactamase expression

Structure (SMILES): COC(=O)C1=C(C)NC(C)=C(C(=O)OCCN(C)Cc2ccccc2)C1c1cccc([N+](=O)[O-])c1 (stereo not drawn) [Nicardipine]
- EC50 [1]: 3.64 ± 0.84 µM
- FXR agonist activity [1]: weak FXR agonist activity
- FXR agonist mode Efficacy ([1]; Table S1, primary screening): 33 ± 7%
- FXR agonist Efficacy ([1]; Table S3): 33 ± 7%
- IC50 [2]: 16.7 ± 5.67 µM
- FXR antagonist mode Efficacy [2, 13]: 116 ± 10%
- FXR antagonist Efficacy ([2]; Table S3, 50 µM CDCA): 116 ± 10%
- EC50 at 16 h [3]: 31.9 ± 15.8 µM
- IC50 at 16 h [3]: 31.9 ± 15.8 µM
- Cytotoxicity Efficacy ([4]; Table S1, primary screening): 125 ± 27%
- Cytotoxicity Efficacy ([4]; Table S3): 125 ± 27%

Structure (SMILES): CC(C)C[C@H](NC(=O)[C@H](Cc1ccccc1)NC(=O)c1cnccn1)B(O)O [Bortezomib]
- FXR agonist mode EC50 ([1]; Table S1, primary screening): Inactive
- IC50 [2, 12]: 0.44 ± 0.21 µM
- FXR antagonist activity ([2]; FXR-bla assay, CDCA-induced): inconclusive antagonists
- IC50 at 16 h [3]: 0.22 ± 0.1 µM
- Cytotoxicity Efficacy ([4]; Table S1, primary screening): 57 ± 2%

Structure (SMILES): C[C@H](CCC(=O)O)[C@H]1CC[C@H]2[C@@H]3CC[C@@H]4C[C@H](O)CC[C@]4(C)[C@H]3CC[C@]12C [LCA, lithocholic acid]
- FXR agonist activity [1]: selectively induced transactivation of FXR
- FXR agonist mode Efficacy ([1]; Table S1, primary screening): 20 ± 7%
- FXR antagonist mode Efficacy [2, 13]: 75 ± 40%
- IC50 at 16 h [3]: 43.8 ± 4.18 µM
- Cytotoxicity Efficacy ([4]; Table S1, primary screening): 65 ± 22%

Structure (SMILES): C[C@H](CCC(=O)O)[C@H]1CC[C@H]2[C@@H]3CC[C@@H]4C[C@H](O)CC[C@]4(C)[C@H]3C[C@H](O)[C@]12C [DCA, Deoxycholic acid]
- EC50 [1]: 47.3 µM
- FXR agonist activity [1]: selectively induced transactivation of FXR
- FXR agonist mode Efficacy ([1]; Table S1, primary screening): 50 ± 12%
- FXR antagonist mode IC50 [2, 13]: Inactive
- IC50 at 16 h [3]: 66.5 ± 16.1 µM
- Cytotoxicity Efficacy ([4]; Table S1, primary screening): 73 ± 17%

Structure (SMILES): CCc1c(C(=O)NN2CCCCC2)nn(-c2ccc(Cl)cc2Cl)c1-c1ccc(Br)cc1 [Surinabant]
- FXR-bla, agonist EC50 [1]: Inactive
- FXR TR-FRET, antagonist Efficacy [10, 14]: 73 ± 1%
- IC50 [2]: 1.84 ± 0.77 µM
- FXR-bla, antagonist Efficacy [2]: 86 ± 25%
- FXR antagonist Efficacy ([2]; Table S3, 50 µM CDCA): 96 ± 16%
- EC50 at 16 h [3]: 34.1 ± 13.5 µM
- IC50 ([4]; Homo sapiens, HEK-293T, read-out: Cell viability IC50): 17.1 ± 1.12 µM
- Cytotoxicity Efficacy ([4]; Table S3): 66 ± 17%
- FXR TR-FRET, agonist EC50 [11]: Inactive
